# Legend:
# [1] = PK in repeated oral dose study, MDA-MB231 xenograft human PBMC adoptive transfer mouse model (Table 14); format: in vivo; details: for AUCinf (unbound) / Cmax (unbound): mouse, unbound (73% PPB in mouse)
# Description: FIG. 6 is a pictorial representation of the multi-dose PK/PD study design in the human PBMC adoptive transfer mouse model harboring MDA-MB231 xenografts. Fourteen consecutive daily doses of Compound I-57 was administered at 0.3 mg/kg, 1 mg/kg, 3 mg/kg or 30 mg/kg.
# The PK/PD relationship of I-57 was examined in the hPBMC AdT model system. Human PBMCs were adoptively transferred into female NSG mice harboring established MDA-MB231 xenografts (FIG. 6). This model was selected based on the observation that IKZF2 positive Tregs (CD4+FOXP3+) were readily identifiable in peripheral blood and infiltrated in the tumor xenografts.
# Mice were administered I-57 daily for 14 consecutive days at the doses shown. Longitudinal I-57 plasma concentrations were assessed (Table 14).
# Based on the data from this hPBMC AdT mouse model, unbound I-57 (73% percent plasma binding in the mouse) exposures (AUCinf) of 7, 30, 157 and 3474 ng*h/mL are required to achieve the reduction of IKZF2 positivity (via flow cytometry) in tumor Tregs by 31, 43, 56, and 75%, respectively. The relationship between the magnitude and duration of I-57-mediated IKZF2 degradation and subsequent modulation of therapeutically relevant downstream biology is not yet well understood.
# [2] = target: IKZF2 (Homo sapiens, UniProt Q96SW2+Q9UKS7); assay: IKZF2 protein in total tumor-infiltrating lymphocytes by immunohistochemistry, hPBMC AdT model (FIG. 8); format: in vivo; set-up: endogenous in cells; host or cells: primary human PBMCs / primary Treg cells; details: 24 h post the 14th daily dose
# Sequence of IKZF2 (Q9UKS7 whole entry): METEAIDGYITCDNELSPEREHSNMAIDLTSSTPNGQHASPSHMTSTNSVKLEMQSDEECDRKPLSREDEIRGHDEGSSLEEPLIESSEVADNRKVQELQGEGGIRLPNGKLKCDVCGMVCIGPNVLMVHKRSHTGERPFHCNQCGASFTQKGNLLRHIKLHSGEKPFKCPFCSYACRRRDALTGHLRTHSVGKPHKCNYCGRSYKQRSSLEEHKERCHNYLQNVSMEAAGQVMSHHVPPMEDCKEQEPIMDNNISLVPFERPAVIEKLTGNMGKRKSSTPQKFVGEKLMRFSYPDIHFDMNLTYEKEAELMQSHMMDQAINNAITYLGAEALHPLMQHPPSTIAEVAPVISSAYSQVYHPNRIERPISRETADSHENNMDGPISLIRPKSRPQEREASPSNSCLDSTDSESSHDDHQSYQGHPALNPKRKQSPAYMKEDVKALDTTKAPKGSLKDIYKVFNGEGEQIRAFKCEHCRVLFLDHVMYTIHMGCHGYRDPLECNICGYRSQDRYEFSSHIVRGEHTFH
# Sequence of IKZF2 (Q96SW2 whole entry): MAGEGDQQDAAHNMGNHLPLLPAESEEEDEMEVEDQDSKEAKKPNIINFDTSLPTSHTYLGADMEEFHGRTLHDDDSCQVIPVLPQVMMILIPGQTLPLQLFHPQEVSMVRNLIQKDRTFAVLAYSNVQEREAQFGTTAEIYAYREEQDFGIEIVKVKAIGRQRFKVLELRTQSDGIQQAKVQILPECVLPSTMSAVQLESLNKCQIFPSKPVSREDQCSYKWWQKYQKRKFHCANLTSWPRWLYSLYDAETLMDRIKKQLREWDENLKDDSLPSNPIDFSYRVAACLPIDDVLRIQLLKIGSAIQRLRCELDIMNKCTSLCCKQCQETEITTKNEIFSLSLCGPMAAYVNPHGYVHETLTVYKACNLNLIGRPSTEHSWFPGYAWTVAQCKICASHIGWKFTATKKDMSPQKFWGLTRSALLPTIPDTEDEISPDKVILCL
# Sequence of IKZF2 (Q16531 whole entry partner): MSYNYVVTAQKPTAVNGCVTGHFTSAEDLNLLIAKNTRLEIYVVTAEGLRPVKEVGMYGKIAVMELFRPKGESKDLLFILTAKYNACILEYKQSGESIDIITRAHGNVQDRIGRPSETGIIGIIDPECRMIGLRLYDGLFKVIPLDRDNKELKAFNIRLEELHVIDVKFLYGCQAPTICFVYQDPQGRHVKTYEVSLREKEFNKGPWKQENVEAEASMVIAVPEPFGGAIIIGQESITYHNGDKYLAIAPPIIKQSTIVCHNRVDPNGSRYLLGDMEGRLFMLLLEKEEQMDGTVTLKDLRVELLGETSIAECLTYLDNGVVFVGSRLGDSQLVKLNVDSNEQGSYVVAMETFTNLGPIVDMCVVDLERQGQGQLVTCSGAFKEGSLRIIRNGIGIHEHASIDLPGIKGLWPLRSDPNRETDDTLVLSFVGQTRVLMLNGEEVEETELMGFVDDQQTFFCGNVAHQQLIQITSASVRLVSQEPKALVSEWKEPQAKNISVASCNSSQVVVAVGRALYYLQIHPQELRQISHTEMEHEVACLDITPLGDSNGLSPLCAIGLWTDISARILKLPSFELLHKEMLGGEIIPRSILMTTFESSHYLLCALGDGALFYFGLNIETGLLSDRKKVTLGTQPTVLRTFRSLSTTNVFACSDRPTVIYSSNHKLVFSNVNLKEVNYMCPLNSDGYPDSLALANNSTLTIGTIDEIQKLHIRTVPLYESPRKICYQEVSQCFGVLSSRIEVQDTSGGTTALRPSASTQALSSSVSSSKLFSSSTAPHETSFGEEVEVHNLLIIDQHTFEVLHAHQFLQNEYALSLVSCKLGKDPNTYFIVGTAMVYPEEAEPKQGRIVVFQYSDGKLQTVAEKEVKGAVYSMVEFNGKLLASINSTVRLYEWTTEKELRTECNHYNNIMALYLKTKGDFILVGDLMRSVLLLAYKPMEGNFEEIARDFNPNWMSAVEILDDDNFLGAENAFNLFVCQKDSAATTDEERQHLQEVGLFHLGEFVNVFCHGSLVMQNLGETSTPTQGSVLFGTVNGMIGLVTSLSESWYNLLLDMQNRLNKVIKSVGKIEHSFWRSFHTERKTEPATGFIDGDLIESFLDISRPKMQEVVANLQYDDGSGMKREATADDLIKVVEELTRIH
# Description: FIG. 8A is a bar graph showing the change in the IKZF2 protein levels in total tumor-infiltrating lymphocytes by immunohistochemistry (IHC) at 24 h post the 14th daily dose of 1, 3 or 30 mg/kg Compound I-57.
# IKZF2 protein levels in total tumor-infiltrating lymphocytes were also assessed by immunohistochemistry (IHC) at 24 h post the 14th dose of 1, 3 or 30 mg/kg I-57. […] Overall, IKZF2 degradation assessed by IHC was generally consistent with our findings in Tregs by flow cytometry, though dose dependency was less apparent. Together, the data support the finding of profound I-57-mediated IKZF2 degradation in tumor-infiltrating lymphocytes (FIG. 8A and FIG. 8B).
# [3] = PK after repeated daily oral dosing in immunized cynomolgus monkeys (Table 15); format: in vivo, cynomolgus monkey; details: for AUC0-24 (unbound) / AUC0-24/D (unbound) / Cmax (unbound) / Cmax/D (unbound): cynomolgus monkey
# Description: The PK/PD relationship of I-57 was further examined in cynomolgus monkeys after repeated daily oral doses of 0.1 and 3 mg/kg. In this study, a cohort of animals were initially immunized with an antigen-adjuvant mixture (KLH/Squalene). The experiment was designed to assess the effect of I-57 exposure, and the resulting IKZF2 degradation, on immune response during immunization to test the hypothesis that IKZF2 degradation would result in increased proliferation of stimulated T-cells. In the experiment, daily I-57 oral treatment was initiated 5 days after immunization. An immunization booster dose was administered on day 15. I-57 plasma concentration and IKZF2 expression (as determined by flow cytometry) in FOXP3+ T cells from PBMCs were determined (FIG. 9A and FIG. 9B).
# Exposure levels for 3 mg/kg in cynomolgus monkeys are anticipated to correspond to ˜100 mg QD in humans.
# [4] = test system: IKZF2 expression in FOXP3+ T cells from PBMCs; assay: PD after single oral dose in cynomolgus monkey: IKZF2 expression by flow cytometry; format: in vivo
# Description: FIG. 4 is a graph showing the PK/PD relationship in the cynomolgus monkey after a single oral of 0.01, 0.1 or 1 mg/kg of Compound I-57.
# FIG. 5. is a graph showing plasma concentration in the cynomolgus monkey of Compound I-57 and IKZF2 expression (as determined by flow cytometry) in FOXP3+ T cells from PBMCs after a single oral of 0.01, 0.1 or 1 mg/kg of Compound I-57.
# The PK/PD relationship of I-57 was examined in cynomolgus monkeys after a single oral dose of 0.01, 0.1 or 1 mg/kg. I-57 plasma concentration and IKZF2 expression (as determined by flow cytometry) in FOXP3+ T cells from PBMCs were determined (FIG. 4 and FIG. 5).
# Decreased (percentage change) IKZF2 positive FOXP3-cells, as determined by flow cytometry, were detectable at 4h post dose in the 1 mg/kg and 0.1 mg/kg groups, reaching maximum at 12-24 hrs post-dose and maintaining this maximum for 12-24 hrs.
# [5] = Preclinical safety observations; format: in vivo
# Description: The inclusion/exclusion criteria, dose modification guidelines and safety assessments in this FIH trial account for both the disease indications and preclinical safety profile of I-57 and PDR001. Of note are the provisions put in place for the risk of autoimmune events for both PDR001 and potentially I-57.
# [6] = p.o. 0.3 mg/kg daily, post 1st dose
# [7] = p.o. 0.3 mg/kg daily, post 13th dose
# [8] = p.o. 1 mg/kg daily, post 1st dose
# [9] = p.o. 1 mg/kg daily, post 13th dose
# [10] = p.o. 3 mg/kg daily, post 1st dose
# [11] = p.o. 3 mg/kg daily, post 13th dose
# [12] = p.o. 30 mg/kg daily, post 1st dose
# [13] = p.o. 30 mg/kg daily, post 13th dose
# [14] = Day 5, Group 2 (only I-57), 0.1 mg/kg/day oral
# [15] = Day 5, Group 4 (I-57 + KLH + adjuvant), 0.1 mg/kg/day oral
# [16] = Day 5, Group 5 (I-57 + KLH + adjuvant), 3 mg/kg/day oral
# [17] = Day 29, Group 2 (only I-57), 0.1 mg/kg/day oral
# [18] = Day 29, Group 4 (I-57 + KLH + adjuvant), 0.1 mg/kg/day oral
# [19] = Day 29, Group 5 (I-57 + KLH + adjuvant), 3 mg/kg/day oral
compound,measurement,setting,value
"O=C1CCC(N2Cc3cc(C4CCN(Cc5ccccc5)CC4)ccc3C2=O)C(=O)N1 (stereo not drawn) [Compound I-57, 3-(5-(1-benzylpiperidin-4-yl)-1-oxoisoindolin-2-yl)piperidine-2,6-dione]",increase in AUC and Cmax with dose,"[1]; between 3 and 30 mg/kg, daily oral",over-dose proportional increase
same,increase in overall AUC and Cmax with dose,"[1]; from 0.3 to 3 mg/kg, daily oral",dose proportional increase
same,AUCinf (unbound),[1]; [6],7.1 ng·h/mL
same,Cmax (unbound),[1]; [6],2.9 ng/mL
same,AUCinf (unbound),[1]; [7],7.5 ng·h/mL
same,Cmax (unbound),[1]; [7],1.1 ng/mL
same,AUCinf (unbound),[1]; [8],30 ng·h/mL
same,Cmax (unbound),[1]; [8],8.8 ng/mL
same,AUCinf (unbound),[1]; [9],20 ng·h/mL
same,Cmax (unbound),[1]; [9],4.6 ng/mL
same,AUCinf (unbound),[1]; [10],157 ng·h/mL
same,Cmax (unbound),[1]; [10],53 ng/mL
same,AUCinf (unbound),[1]; [11],92 ng·h/mL
same,Cmax (unbound),[1]; [11],27 ng/mL
same,AUCinf (unbound),[1]; [12],3470 ng·h/mL
same,Cmax (unbound),[1]; [12],1250 ng/mL
same,AUCinf (unbound),[1]; [13],4270 ng·h/mL
same,Cmax (unbound),[1]; [13],1300 ng/mL
same,unbound exposure (AUCinf),[1]; required for reduction of IKZF2 positivity in tumor Tregs by 31%,7 ng·h/mL
same,unbound exposure (AUCinf),[1]; required for reduction of IKZF2 positivity in tumor Tregs by 43%,30 ng·h/mL
same,unbound exposure (AUCinf),[1]; required for reduction of IKZF2 positivity in tumor Tregs by 56%,157 ng·h/mL
same,unbound exposure (AUCinf),[1]; required for reduction of IKZF2 positivity in tumor Tregs by 75%,3474 ng·h/mL
same,IKZF2 degradation in total tumor-infiltrating lymphocytes (IHC),[2]; 30 mg/kg,approximately 85%
same,IKZF2 levels in total tumor-infiltrating lymphocytes (IHC),"[2]; 1, 3 and 30 mg/kg",Robust reduction in IKZF2 levels
same,AUC0-24 (unbound),[3]; [14],56.8 ng·h/mL
same,AUC0-24/D (unbound),[3]; [14],567 (ng · h/mL)/(mg/kg)
same,Cmax (unbound),[3]; [14],7.10 ng/mL
same,Cmax/D (unbound),[3]; [14],71.0 (ng/mL)/(mg/kg)
same,AUC0-24 (unbound),[3]; [15],63.5 ng·h/mL
same,AUC0-24/D (unbound),[3]; [15],634 (ng · h/mL)/(mg/kg)
same,Cmax (unbound),[3]; [15],11.0 ng/mL
same,Cmax/D (unbound),[3]; [15],110 (ng/mL)/(mg/kg)
same,AUC0-24 (unbound),[3]; [16],2840 ng·h/mL
same,AUC0-24/D (unbound),[3]; [16],946 (ng · h/mL)/(mg/kg)
same,Cmax (unbound),[3]; [16],523 ng/mL
same,Cmax/D (unbound),[3]; [16],175 (ng/mL)/(mg/kg)
same,AUC0-24 (unbound),[3]; [17],78.1 ng·h/mL
same,AUC0-24/D (unbound),[3]; [17],782 (ng · h/mL)/(mg/kg)
same,Cmax (unbound),[3]; [17],13.1 ng/mL
same,Cmax/D (unbound),[3]; [17],131 (ng/mL)/(mg/kg)
same,AUC0-24 (unbound),[3]; [18],96.4 ng·h/mL
same,AUC0-24/D (unbound),[3]; [18],965 (ng · h/mL)/(mg/kg)
same,Cmax (unbound),[3]; [18],18.0 ng/mL
same,Cmax/D (unbound),[3]; [18],180 (ng/mL)/(mg/kg)
same,AUC0-24 (unbound),[3]; [19],3460 ng·h/mL
same,AUC0-24/D (unbound),[3]; [19],1150 (ng · h/mL)/(mg/kg)
same,Cmax (unbound),[3]; [19],504 ng/mL
same,Cmax/D (unbound),[3]; [19],169 (ng/mL)/(mg/kg)
same,human dose anticipated to correspond to exposure levels,[3]; exposure levels for 3 mg/kg in cynomolgus monkeys,~100 mg QD
same,time at which decreased IKZF2 positive FOXP3 cells were detectable,"[4]; post dose, 1 mg/kg and 0.1 mg/kg groups",4 h
same,duration for which maximum decrease was maintained,[4]; single oral dose,12 to 24 h
same,dose dependence of decrease in IKZF2 positive cells,"[4]; single oral dose of 0.01, 0.1 or 1 mg/kg",dose dependent
same,preclinical observation (ECG),[5],QTc prolongation
same,preclinical observation (urine),[5],hematuria and proteinuria
